The numbers were not newly measured in patent US6002023A, “2-debenzoyl-2-acyl taxol derivatives and method for making same” (Virginia Tech Intellectural Properties, Inc., priority 1997, dated 1999), which cites them from elsewhere.

The test system of data set [1] is ovarian cancer and breast cancer. The settings on record: cited from earlier work.
Data set [2] relates to non-small cell lung cancer. To be noted: preliminary studies; cited from earlier work.
For data set [3] the following is noted: in some assays; cited from earlier work.

With `CC(=O)O[C@H]1C(=O)[C@@]2(C)[C@H]([C@H](OC(=O)c3ccccc3)[C@]3(O)C[C@H](OC(=O)[C@H](O)[C@@H](NC(=O)c4ccccc4)c4ccccc4)C(C)=C1C3(C)C)[C@]1(OC(C)=O)CO[C@@H]1C[C@@H]2O` [Taxol], the clinical activity entry is listed as “excellent clinical activity” in data set [1] and “good activity” in data set [2].

On to `CC(=O)O[C@@]12CO[C@@H]1C[C@H](O)[C@@]1(C)C(=O)[C@H](O)C3=C(C)[C@@H](OC(=O)[C@H](O)[C@@H](NC(=O)OC(C)(C)C)c4ccccc4)C[C@@](O)([C@@H](OC(=O)c4ccccc4)[C@H]21)C3(C)C` [Taxotere], for which the “activity relative to taxol” value in data set [3] is recorded as “approximately twice as active as taxol”.
